Laboratory results taken from US20060069132A1, “Azolecarboxamide herbicides” (priority 2004, published 2006).

What was measured:
[1] = system: cocklebur; assay: Test B pre-/postemergence herbicide test; format: in vivo, Xanthium strumarium; conditions: for Cocklebur plant response rating: postemergence
How it was run: (§1)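 Test chemicals in a non-phytotoxic solvent mixture with surfactant were applied preemergence to seeded species and postemergence to plants 2-18 cm tall (1- to 4-leaf stage); rice and barnyardgrass were also tested in a flooded paddy at the 2-leaf stage. Visual rating versus controls after 13-15 days in greenhouse, scale 0 (no effect) to 100 (complete control).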

[2] = system: rice; assay: Test B flooded paddy test; format: in vivo, Oryza sativa; conditions: 1000 g ai/ha, scale 0 to 100 (0 no effect, 100 complete control)
How it was run: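 Visual ratings, 0 (no effect) to 100 (complete control), made versus controls after 13–15 d greenhouse. Paddy plants treated at 2-leaf stage; postemergence plants at 1- to 4-leaf stage, 2–18 cm tall.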

[3] = system: wheat; assay: Test B postemergence herbicide test; format: in vivo, Triticum aestivum; set-up: key to Wheat plant response rating: 0 = no effect, 100 = complete control; conditions: postemergence
How it was run: (§2)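 Scale 0–100: zero equals no visible effect, 100 complete control, judged by eye relative to controls. Timing: 13 to 15 days in greenhouse post-treatment. Growth stage at spraying: two leaves (paddy) or one to four leaves, 2–18 cm (postemergence).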

[4] = system: lambsquarters; assay: Test B pre-/postemergence herbicide test; format: in vivo, Chenopodium album; conditions: for Lambsquarters plant response rating: postemergence
How it was run: (§3)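 Seeds were planted and treated preemergence with compounds formulated in a non-phytotoxic solvent mixture containing surfactant, while plants at the 1- to 4-leaf stage (2 to 18 cm) received postemergence sprays. Flooded paddy plants were grown to the 2-leaf stage. After 13 to 15 days in a greenhouse, injury was visually rated 0–100 against untreated controls.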

[5] = system: barnyardgrass; assay: Test A pre-/postemergence herbicide test; format: in vivo, Echinochloa crus-galli
How it was run: (§4)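 Sandy loam soil given preemergence directed spray; plants at 2 to 10 cm, one- to two-leaf stage, sprayed to runoff postemergence, compounds in non-phytotoxic solvent with surfactant. Injury rated visually versus untreated controls after about ten greenhouse days, 0 (no effect) to 100 (complete control); dash means not tested.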

[6] = system: barnyardgrass; assay: Test B pre-/postemergence herbicide test; format: in vivo, Echinochloa crus-galli; conditions: for Barnyardgrass plant response rating: postemergence
How it was run: as §1

[7] = system: giant foxtail; assay: Test A pre-/postemergence herbicide test; format: in vivo, Setaria faberi
How it was run: as §4

[8] = system: rice; assay: Test B pre-/postemergence herbicide test; format: in vivo, Oryza sativa; conditions: preemergence
How it was run: as §3

[9] = system: corn; assay: Test B pre-/postemergence herbicide test; format: in vivo, Zea mays; conditions: for Corn plant response rating: postemergence
How it was run: as §3

[10] = system: morningglory; assay: Test B pre-/postemergence herbicide test; format: in vivo, Ipomoea coccinea; conditions: for Morningglory plant response rating: postemergence
How it was run: as §1

[11] = system: redroot pigweed; assay: Test A pre-/postemergence herbicide test; format: in vivo, Amaranthus retroflexus
How it was run: as §4

[12] = system: wild oat; assay: Test B postemergence herbicide test; format: in vivo, Avena fatua; conditions: postemergence
How it was run: as §2

[13] = system: ducksalad; assay: Test B flooded paddy test; format: in vivo, Heteranthera limosa; conditions: 1000 g ai/ha, scale 0 to 100 (0 no effect, 100 complete control)
How it was run: (§5)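 Paddy species grown to the 2-leaf stage under flooding; blackgrass sprayed postemergence at 2–18 cm (1- to 4-leaf stage). Plants kept in a greenhouse for 13 to 15 days, then visually rated against controls on 0 (no effect) to 100 (complete control).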

[14] = system: barnyardgrass; assay: Test B flooded paddy test; format: in vivo, Echinochloa crus-galli; conditions: 1000 g ai/ha, scale 0 to 100 (0 no effect, 100 complete control)
How it was run: as §5

[15] = system: large crabgrass; assay: Test A pre-/postemergence herbicide test; format: in vivo, Digitaria sanguinalis
How it was run: as §4

[16] = system: pigweed; assay: Test B pre-/postemergence herbicide test; format: in vivo, Amaranthus retroflexus; conditions: for Pigweed plant response rating: postemergence
How it was run: as §3

[17] = system: velvetleaf; assay: Test B pre-/postemergence herbicide test; format: in vivo, Abutilon theophrasti; conditions: for Velvetleaf plant response rating: postemergence
How it was run: as §3

[18] = system: morningglory; assay: Test A pre-/postemergence herbicide test; format: in vivo, Ipomoea spp.
How it was run: as §4

[19] = system: large crabgrass; assay: Test B pre-/postemergence herbicide test; format: in vivo, Digitaria sanguinalis; conditions: for Crabgrass, Large plant response rating: postemergence
How it was run: as §3

[20] = system: small flower umbrella sedge; assay: Test B flooded paddy test; format: in vivo, Cyperus difformis; conditions: 1000 g ai/ha, scale 0 to 100 (0 no effect, 100 complete control)
How it was run: as §5

[21] = system: Surinam grass; assay: Test B pre-/postemergence herbicide test; format: in vivo, Urochloa decumbens; conditions: for Surinam Grass plant response rating: postemergence
How it was run: as §3

[22] = system: velvetleaf; assay: Test A pre-/postemergence herbicide test; format: in vivo, Abutilon theophrasti
How it was run: as §4

[23] = system: giant foxtail; assay: Test B pre-/postemergence herbicide test; format: in vivo, Setaria faberi; conditions: for Foxtail, Giant plant response rating: postemergence
How it was run: as §3

[24] = system: blackgrass; assay: Test B postemergence herbicide test; format: in vivo, Alopecurus myosuroides; conditions: postemergence
How it was run: as §5

[25] = 125 g ai/ha, 0 is no effect, 100 is complete control, preemergence
[26] = 125 g ai/ha, visual rating, scale 0 (no effect) to 100 (complete control)
[27] = 500 g ai/ha, visual rating, 0 = no effect, 100 = complete control, preemergence
[28] = 500 g ai/ha, scale 0 to 100, 0 is no effect, 100 is complete control
[29] = Postemergence, 500 g ai/ha, 0 to 100 scale, 0 no effect, 100 complete control
[30] = Postemergence, 2000 g ai/ha, 0 to 100 scale, 0 no effect, 100 complete control
[31] = Preemergence, 2000 g ai/ha, visual rating, 0 to 100 scale (0 no effect, 100 complete control)
[32] = preemergence, 500 g ai/ha, visual injury, 0 to 100 scale (0 no effect, 100 complete control)

What does the source list for `CCSCNC(=O)c1cccc(NC(=O)c2cc(C(C)(C)C)nn2CC)c1` [Compound 329]?
Plant response rating (0 to 100 scale), Cocklebur [1, 25]: 0; Cocklebur plant response rating [1, 26]: 0; Plant response rating, Cocklebur [1, 27]: 0; Cocklebur plant response rating [1, 28]: 30; Rice plant response rating [2]: 0; Wheat plant response rating [3, 26]: 20; Wheat plant response rating [3, 28]: 30; Plant response rating (0 to 100 scale), Lambsquarters [4, 25]: 0; Lambsquarters plant response rating [4, 26]: 30; Lambsquarters plant response rating [4, 28]: 70; Barnyardgrass plant response rating [5, 29]: 15; Plant response rating, Barnyardgrass [5, 30]: 20; Barnyardgrass plant response rating [5, 31]: 5; Barnyardgrass plant response rating [5, 32]: 0; Plant response rating (0 to 100 scale), Barnyardgrass [6, 25]: 0; Barnyardgrass plant response rating [6, 26]: 0; Plant response rating, Barnyardgrass [6, 27]: 0; Barnyardgrass plant response rating [6, 28]: 10; Foxtail, Giant plant response rating [7, 29]: 10; Plant response rating, Foxtail, Giant [7, 30]: 20; Foxtail, Giant plant response rating [7, 31]: 5; Foxtail, Giant plant response rating [7, 32]: 0; Plant response rating (0 to 100 scale), Rice ([8]; 125 g ai/ha, 0 is no effect, 100 is complete control): 0; Plant response rating, Rice ([8]; 500 g ai/ha, visual rating, 0 = no effect, 100 = complete control): 0; Plant response rating (0 to 100 scale), Corn [9, 25]: 0; Corn plant response rating [9, 26]: 0; Plant response rating, Corn [9, 27]: 0; Corn plant response rating [9, 28]: 20; Plant response rating (0 to 100 scale), Morningglory [10, 25]: 0; Morningglory plant response rating [10, 26]: 0; Plant response rating, Morningglory [10, 27]: 0; Morningglory plant response rating [10, 28]: 20; Pigweed plant response rating [11, 29]: 10; Plant response rating, Pigweed [11, 30]: 45; Pigweed plant response rating [11, 31]: 10; Pigweed plant response rating [11, 32]: 5; Oat, Wild plant response rating [12, 26]: 20; Oat, Wild plant response rating [12, 28]: 30; Ducksalad plant response rating [13]: 0; Barnyardgrass plant response rating [14]: 0; Crabgrass, Large plant response rating [15, 29]: 10; Plant response rating, Crabgrass, Large [15, 30]: 5; Crabgrass, Large plant response rating [15, 31]: 0; Crabgrass, Large plant response rating [15, 32]: 0; Plant response rating (0 to 100 scale), Pigweed [16, 25]: 0; Pigweed plant response rating [16, 26]: 50; Plant response rating, Pigweed [16, 27]: 0; Pigweed plant response rating [16, 28]: 80; Plant response rating (0 to 100 scale), Velvetleaf [17, 25]: 0; Velvetleaf plant response rating [17, 26]: 10; Plant response rating, Velvetleaf [17, 27]: 0; Velvetleaf plant response rating [17, 28]: 30; Morningglory plant response rating [18, 29]: 10; Plant response rating, Morningglory [18, 30]: 20; Morningglory plant response rating [18, 31]: 10; Morningglory plant response rating [18, 32]: 0; Plant response rating (0 to 100 scale), Crabgrass, Large [19, 25]: 0; Crabgrass, Large plant response rating [19, 26]: 0; Plant response rating, Crabgrass, Large [19, 27]: 0; Crabgrass, Large plant response rating [19, 28]: 10; Sedge, Umbrella plant response rating [20]: 0; Plant response rating (0 to 100 scale), Surinam Grass [21, 25]: 0; Surinam Grass plant response rating [21, 26]: 10; Plant response rating, Surinam Grass [21, 27]: 0; Surinam Grass plant response rating [21, 28]: 20; Velvetleaf plant response rating [22, 29]: 10; Plant response rating, Velvetleaf [22, 30]: 25; Velvetleaf plant response rating [22, 31]: 10; Velvetleaf plant response rating [22, 32]: 0; Plant response rating (0 to 100 scale), Foxtail, Giant [23, 25]: 0; Foxtail, Giant plant response rating [23, 26]: 10; Plant response rating, Foxtail, Giant [23, 27]: 0; Foxtail, Giant plant response rating [23, 28]: 30; Blackgrass plant response rating [24, 26]: 20; Blackgrass plant response rating [24, 28]: 20
